Source: ChEMBL document CHEMBL1201862, “PubChem BioAssay data set” (2004)
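Grown in 96-well plates, cells were treated for 48 hours with each compound at five concentrations. Insufficient inhibition: endpoint recorded as highest concentration tested. GI50: concentration for 50% inhibition of growth.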 Active and inactive are the calls of the source. Cut-off read from the data, not from the text of the source: active = GI50 up to about 1.1 µM and inactive = higher.

Key:
Test in all cases: NCI anticancer screen, dose series, 48 h
[1] = tested on: ACHN
[2] = tested on: HCC 2998
[3] = tested on: HL-60
[4] = tested on: HOP-62
[5] = tested on: HOP-92
[6] = tested on: NCI-H226
[7] = tested on: OVCAR-4
[8] = tested on: OVCAR-8
[9] = tested on: RXF 393
[10] = tested on: SF-268
[11] = tested on: SF-539
[12] = tested on: SK-MEL-2
[13] = tested on: TK-10
[14] = tested on: SR

Measured: GI50

O=C1c2ccccc2C(=O)c2c(NCCNCCO)ccc(O)c21
inactive: [1] 2.73 µM | [2] 4.66 µM | [3] 2.61 µM | [4] 3.21 µM | [5] 3.21 µM | [6] 2.71 µM | [7] 2.85 µM | [8] 2.39 µM | [9] 2.15 µM | [10] 2.14 µM | [11] 2.9 µM | [12] 3.54 µM | [13] 4.65 µM

C=CCC(OCCOCC)c1cc(OCCOCC)ccc1OC (stereo unspecified)
inactive: [1] > 100 µM | [2] > 100 µM | [3] > 100 µM | [4] > 100 µM | [5] > 100 µM | [6] > 100 µM | [7] > 100 µM | [8] > 100 µM | [9] > 100 µM | [10] > 100 µM | [11] > 100 µM | [12] > 100 µM | [13] > 100 µM

NCCOCn1cc(Cc2cccc(OCc3ccccc3)c2)c(=O)[nH]c1=O
inactive: [1] > 10 µM | [2] 42.2 µM | [3] 55.5 µM | [5] > 100 µM | [6] > 100 µM | [7] 90.6 µM | [8] > 100 µM | [11] > 100 µM | [12] > 100 µM | [13] > 100 µM

[O-][S+]1c2ccccc2N=C(c2cccc3ccccc23)CC1c1cccc2ccccc12 (stereo unspecified)
inactive: [1] 23.1 µM | [2] 17.2 µM | [3] 10.8 µM | [4] 34.2 µM | [6] 21.1 µM | [7] 12.8 µM | [8] 18.9 µM | [9] 22.6 µM | [10] 22.2 µM | [11] 19.5 µM | [12] 17.5 µM | [14] 24.1 µM | [13] 31.2 µM

COC(=O)/C(=N\Nc1nc(S)nn1N)C(C#N)c1ccccc1 (stereo unspecified)
inactive: [1] > 100 µM | [2] > 100 µM | [3] > 100 µM | [4] > 100 µM | [6] > 100 µM | [7] > 100 µM | [8] > 100 µM | [9] > 100 µM | [10] > 100 µM | [12] > 100 µM | [13] > 100 µM

O=C1[C@H]2ON(c3ccccc3)C(c3ccc(Cl)cc3)[C@H]2C(=O)N1c1ccc(Cc2ccc(N3C(=O)[C@@H]4ON(c5ccccc5)C(c5ccc(Cl)cc5)[C@@H]4C3=O)cc2)cc1 (stereo partly specified)
inactive: [1] > 100 µM | [2] > 100 µM | [3] > 100 µM | [4] > 100 µM | [6] > 100 µM | [7] > 100 µM | [8] > 100 µM | [9] > 100 µM | [10] > 100 µM | [11] > 100 µM | [12] > 100 µM | [14] > 100 µM | [13] > 100 µM

O=C(O)c1ccccc1[Se][Se]c1ccccc1C(=O)O
inactive: [1] > 100 µM | [2] 89.7 µM | [3] 35.9 µM | [4] 29.7 µM | [5] 39 µM | [6] 1.9 µM | [8] 43.5 µM | [9] 38.3 µM | [10] 40.2 µM | [11] 23.4 µM | [12] 44.4 µM | [13] > 100 µM

O=c1[nH]c(=O)n(C2CC(O)C(CO)O2)cc1C#Cc1cc(F)cc(F)c1 (stereo unspecified)
inactive: [1] > 100 µM | [2] > 100 µM | [4] > 100 µM | [6] > 100 µM | [7] > 100 µM | [8] > 100 µM | [10] > 100 µM | [11] > 100 µM | [12] > 100 µM

O=C(OCc1nc2ccc(Br)cc2c(=O)n1-c1ccccc1)c1ccccc1O
inactive: [1] 70.5 µM | [2] > 100 µM | [3] 36.7 µM | [4] > 100 µM | [5] > 100 µM | [6] 57.5 µM | [7] 34.1 µM | [8] > 100 µM | [9] > 100 µM | [10] 78.9 µM | [11] > 100 µM | [12] 90.4 µM | [13] > 100 µM

N#Cc1c(-c2ccco2)cc(-c2ccc(NCc3nc4ccccc4[nH]3)cc2)nc1N
inactive: [1] 26.5 µM | [2] 21.8 µM | [3] 20 µM | [4] 26.7 µM | [5] 21.4 µM | [7] 22.8 µM | [8] 20.4 µM | [9] 16 µM | [10] 30.1 µM | [11] 19.5 µM | [12] 20.3 µM | [13] 26.4 µM

CC(=O)OCCOCNC(=S)N/N=C(\C)c1ccco1
inactive: [1] > 100 µM | [2] > 100 µM | [4] > 100 µM | [6] 64.6 µM | [7] > 100 µM | [8] > 100 µM | [9] > 100 µM | [10] > 100 µM | [11] > 100 µM | [12] > 100 µM | [13] > 100 µM

COC(=O)[C@@]1(C)C(=O)CC[C@@H]1C=O
inactive: [1] > 100 µM | [3] 60.5 µM | [4] > 100 µM | [6] > 100 µM | [7] > 100 µM | [8] > 100 µM | [10] > 100 µM | [11] > 100 µM | [12] > 100 µM | [14] 82.2 µM | [13] > 100 µM
